From publication PMC9330042, “Synthesis and Biological Studies of Novel Aminophosphonates and Their Metal Carbonyl Complexes (Fe, Ru)” (International Journal of Molecular Sciences, 2022)

These compounds were tested on V79 cell line (assay: MTT cytotoxicity test). Conditions: V79 cells, 24 h, tested range 100–1000 µM; viability below 70% indicates cytotoxicity.
Type: cell-based, Cricetulus griseus
Protocol: Cell viability below 70% indicates cytotoxicity.
V79 cells (Cricetulus griseus lung fibroblast cell line) (European Collection of Cell Culture) were grown in MEM (PAN-Biotech, Aidenbach, Germany) containing 2 mM glutamine (Sigma Aldrich, Darmstadt, Germany)), 1% non-essential amino acids (Biological Industries, Cromwell, U.S), 10% FBS (Biowest, Nuaillé, France), and 100 units/mL penicillin and […] (Biological Industries, Cromwell, U.S). Cells were plated and grown in an incubator at 37 °C with 5% CO2 to 80% confluence before the initiation of the assay.
V79 cells were seeded at a density of 1 × 10^4 cells per well and were incubated for 24 h. After 24 h, the medium was removed from the wells, and cells were exposed to the compound solutions over a range of concentrations or nothing but culture medium (blank control). Cells were further incubated for an additional 24 h. At the end, the medium was removed and MTT solution (0.75 mg/mL) was added. Next, plates were incubated in the dark for 2 h at 37 °C. Then, the MTT solution was removed and DMSO was added to each well. Plates were incubated for 10 min at room temperature. The absorbance at 570 nm was measured on a microplate reader. Cell viability was expressed as a percentage of the control values (blank).
`CCOP(=O)(Cc1ccccc1CN)OCC` [8a] was tested, and the “Cytotoxicity (in words)” value was “Non-toxic”. In the case of `CCOP(=O)(Cc1cccc(CN)c1)OCC` [8b], the “Cytotoxicity (in words)” value is reported as “Non-toxic”. With `CCOP(=O)(Cc1ccc(CN)cc1)OCC` [8c] the “Cytotoxicity (in words)” value was “Non-toxic”.
